Activity calls are given as the source filed them. The calls are words filed in the database; no cut-off is given here. Numbered stars: 1 amine (or outer) side, 2 acyl side, 3 side chain; on linkers, the order of the positions; unused ones are H or OH. Square brackets hold non-standard residues; d marks the D form. Peptide text beside a SMILES is read from it. * marks the point of attachment. X17 = CC(=O)N(CCCC[C@H](N[*:1])C(=O)[*:2])C1CC2CCC1C2; X5 = O=C([C@H](CCCCNC1C2CC3CC(C2)CC1C3)N[*:1])[*:2]; X3 = CN(C)C(NCCCC[C@H](N[*:1])C(=O)[*:2])=[N+](C)C; X15 = O=C([C@H](CCCCNC1CN2CCC1CC2)N[*:1])[*:2]; X14 = CCCN(CCCC[C@H](N[*:1])C(=O)[*:2])C(C)C; X8 = O=C([C@H](CCCCNC1CC2CCC1C2)N[*:1])[*:2]; Phe(4-CH2NH2) = NCc1ccc(C[C@H](N)C(=O)O)cc1; X19 = CN(CCCC[C@H](N[*:1])C(=O)[*:2])C1CNC1; Acetyl(2-naphthyl) = O=C(Cc1ccc2ccccc2c1)*; Lys(Et,iPr) = CCN(CCCC[C@H](N)C(=O)O)C(C)C; Benzoyl(4-tBu) = CC(C)(C)c1ccc(C(=O)*)cc1; Lys(Et2) = CCN(CC)CCCC[C@H](N)C(=O)O; Benzoyl(4-OMe) = COc1ccc(C(=O)*)cc1; Benzoyl(4-Me) = Cc1ccc(C(=O)*)cc1; X18 = O=C(Cc1c[nH]c2ccccc12)*; X2 = Cc1cccc(C(=O)*)c1; Boc = CC(C)(C)OC(=O)*; X1 = Cc1ccccc1C(=O)*; Bz = O=C(c1ccccc1)*
Columns and labels:
[1] = target: T1, E3 SUMO-protein ligase CBX4 (Homo sapiens, UniProt O00257); test: Antagonist activity at recombinant human N-terminal His-tagged CBX4 chromodomain (8 to 65 residues) expressed in Escherichia coli Rosetta BL21(DE3)pLysS using biotin-labeled UNC4195 measured after 30 mins by AlphaScreen assay
T1 sequence (O00257 whole entry): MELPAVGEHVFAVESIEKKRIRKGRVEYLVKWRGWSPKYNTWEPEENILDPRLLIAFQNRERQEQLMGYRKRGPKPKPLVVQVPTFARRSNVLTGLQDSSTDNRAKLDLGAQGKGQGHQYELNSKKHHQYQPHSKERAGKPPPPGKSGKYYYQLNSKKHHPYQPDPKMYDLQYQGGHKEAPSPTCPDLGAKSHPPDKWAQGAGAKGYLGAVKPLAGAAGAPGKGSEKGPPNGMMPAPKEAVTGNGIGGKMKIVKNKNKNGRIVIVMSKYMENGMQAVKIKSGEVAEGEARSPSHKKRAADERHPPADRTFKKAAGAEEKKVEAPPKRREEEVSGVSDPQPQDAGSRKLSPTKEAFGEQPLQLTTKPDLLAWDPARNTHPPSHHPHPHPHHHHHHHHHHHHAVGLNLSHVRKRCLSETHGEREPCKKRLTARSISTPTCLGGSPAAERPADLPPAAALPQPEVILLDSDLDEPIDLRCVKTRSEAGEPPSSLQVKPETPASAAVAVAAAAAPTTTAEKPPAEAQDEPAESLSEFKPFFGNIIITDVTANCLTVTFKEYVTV

[2] = target: Chromobox protein homolog 5 (Homo sapiens, UniProt P45973); test: Antagonist activity at recombinant human N-terminal His-tagged CBX5 chromodomain (18 to 75 residues) expressed in Escherichia coli Rosetta BL21(DE3)pLysS using ARTKQTARK(Me3)STGGKAPRKQL-K(Biotin)-NH2 measured after 30 mins by AlphaScreen assay
[3] = target: T2, Chromobox protein homolog 7 (Homo sapiens, UniProt O95931); test: Antagonist activity at recombinant human C-terminal His-tagged CBX7 chromodomain (8 to 62 residues) expressed in Escherichia coli Rosetta BL21(DE3)pLysS using biotin-labeled UNC4195 measured after 30 mins by AlphaScreen assay
T2 sequence (O95931 whole entry): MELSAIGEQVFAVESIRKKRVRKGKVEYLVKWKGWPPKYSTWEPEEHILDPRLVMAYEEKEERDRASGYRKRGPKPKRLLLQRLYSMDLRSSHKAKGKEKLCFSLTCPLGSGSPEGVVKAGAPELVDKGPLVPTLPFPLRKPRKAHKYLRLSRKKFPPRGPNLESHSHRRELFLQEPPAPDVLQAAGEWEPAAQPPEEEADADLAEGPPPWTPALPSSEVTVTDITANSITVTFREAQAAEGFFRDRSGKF

[4] = target: T3, Chromobox protein homolog 8 (Homo sapiens, UniProt Q9HC52); test: Antagonist activity at recombinant human N-terminal His-tagged CBX8 chromodomain (8 to 61 residues) expressed in Escherichia coli Rosetta BL21(DE3)pLysS using biotin-labeled UNC4195 measured after 30 mins by AlphaScreen assay
T3 sequence (Q9HC52 whole entry): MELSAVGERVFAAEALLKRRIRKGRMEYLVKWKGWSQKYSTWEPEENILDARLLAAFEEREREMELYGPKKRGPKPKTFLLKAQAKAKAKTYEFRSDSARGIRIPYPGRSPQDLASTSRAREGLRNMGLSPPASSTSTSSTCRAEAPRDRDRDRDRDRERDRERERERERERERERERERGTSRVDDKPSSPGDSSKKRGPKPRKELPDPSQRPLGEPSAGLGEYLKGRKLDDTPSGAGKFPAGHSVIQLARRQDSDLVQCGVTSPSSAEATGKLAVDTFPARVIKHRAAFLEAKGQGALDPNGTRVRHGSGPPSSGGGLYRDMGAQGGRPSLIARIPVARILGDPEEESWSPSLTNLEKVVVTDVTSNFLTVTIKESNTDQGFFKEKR

[5] = target: T4, Chromodomain Y-like protein 2 (Homo sapiens, UniProt Q8N8U2); test: Antagonist activity at recombinant human C-terminal His-tagged CDYL2 chromodomain (1 to 75 residues) expressed in Escherichia coli Rosetta BL21(DE3)pLysS using biotin-labeled UNC4195 measured after 30 mins by AlphaScreen assay
T4 sequence (Q8N8U2 whole entry): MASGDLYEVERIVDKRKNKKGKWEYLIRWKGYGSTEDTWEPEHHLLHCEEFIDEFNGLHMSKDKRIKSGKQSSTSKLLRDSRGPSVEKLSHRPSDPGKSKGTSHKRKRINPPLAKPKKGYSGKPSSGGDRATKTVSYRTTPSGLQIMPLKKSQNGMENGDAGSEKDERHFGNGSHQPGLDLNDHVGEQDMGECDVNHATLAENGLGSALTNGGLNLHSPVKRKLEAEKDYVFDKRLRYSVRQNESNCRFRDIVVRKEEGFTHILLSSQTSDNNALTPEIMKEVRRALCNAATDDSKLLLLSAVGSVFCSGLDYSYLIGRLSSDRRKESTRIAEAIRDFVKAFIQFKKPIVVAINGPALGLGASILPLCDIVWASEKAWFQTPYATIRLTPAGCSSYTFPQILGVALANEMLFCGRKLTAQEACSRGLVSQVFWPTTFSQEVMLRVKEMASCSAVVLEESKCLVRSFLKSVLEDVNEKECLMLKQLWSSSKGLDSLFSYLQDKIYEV

[6] = target: T5, Chromobox protein homolog 7 (Homo sapiens) (UniProt O95931); test: Binding affinity to recombinant human C-terminal His-tagged CBX7 chromodomain (8 to 62 residues) expressed in Escherichia coli Rosetta BL21(DE3)pLysS by SPR method
T5 sequence (whole entry): T2 sequence (O95931 whole entry)

Chromobox protein homolog 5, sequence (P45973 whole entry, the tested form may be a part): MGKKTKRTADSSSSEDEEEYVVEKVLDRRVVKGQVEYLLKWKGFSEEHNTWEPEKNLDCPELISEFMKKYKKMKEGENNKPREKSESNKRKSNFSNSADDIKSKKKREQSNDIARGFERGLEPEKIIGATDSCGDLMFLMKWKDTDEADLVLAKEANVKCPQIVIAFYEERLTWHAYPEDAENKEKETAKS

SMILES | IC50 [1] | IC50 [2] | IC50 [3] | IC50 [4] | IC50 [5] | Activity [6]
CCN(CC)CCCC[C@H](NC(=O)[C@H](CC(C)C)NC(=O)[C@H](C)NC(=O)[C@H](Cc1ccccc1)NC(=O)CNC(=O)c1ccccc1)C(=O)N[C@@H](CO)C(=O)OC (Bz-GFAL[Lys(Et2)]S-OMe) | 46 µM |  |  |  |  | 
COC(=O)[C@H](CO)NC(=O)[C@H](CCCCNC(N(C)C)=[N+](C)C)NC(=O)[C@H](CC(C)C)NC(=O)[C@H](C)NC(=O)[C@H](Cc1ccccc1)NC(=O)CNC(=O)c1ccccc1 (Bz-GFAL[X3]S-OMe) | > 60 µM | > 60 µM | > 60 µM | > 60 µM |  | 
COC(=O)[C@H](CO)NC(=O)[C@H](CCCCNC1C2CC3CC(C2)CC1C3)NC(=O)[C@H](CC(C)C)NC(=O)[C@H](C)NC(=O)[C@H](Cc1ccccc1)NC(=O)CNC(=O)c1ccccc1 (stereo partly specified) (Bz-GFAL[X5]S-OMe) | > 60 µM | > 60 µM | > 60 µM | > 60 µM | 14 µM | 
COC(=O)[C@H](CO)NC(=O)[C@H](CCCCNC1CC2CCC1C2)NC(=O)[C@H](CC(C)C)NC(=O)[C@H](C)NC(=O)[C@H](Cc1ccccc1)NC(=O)CNC(=O)c1ccccc1 (stereo partly specified) (Bz-GFAL[X8]S-OMe) | > 60 µM | > 60 µM | 51 µM | > 60 µM | 5 µM | 
COC(=O)[C@H](CO)NC(=O)[C@H](CCCCNC1CN2CCC1CC2)NC(=O)[C@H](CC(C)C)NC(=O)[C@H](C)NC(=O)[C@H](Cc1ccccc1)NC(=O)CNC(=O)c1ccccc1 (stereo partly specified) (Bz-GFAL[X15]S-OMe) | > 60 µM | > 60 µM | > 60 µM | > 60 µM | 24 µM | 
COC(=O)[C@H](CO)NC(=O)[C@H](CCCCN(C(C)=O)C1CC2CCC1C2)NC(=O)[C@H](CC(C)C)NC(=O)[C@H](C)NC(=O)[C@H](Cc1ccccc1)NC(=O)CNC(=O)c1ccccc1 (stereo partly specified) (Bz-GFAL[X17]S-OMe) | > 60 µM | > 60 µM | > 60 µM | > 60 µM | 38 µM | 
COC(=O)[C@H](CO)NC(=O)[C@H](CCCCN(C)C1CNC1)NC(=O)[C@H](CC(C)C)NC(=O)[C@H](C)NC(=O)[C@H](Cc1ccccc1)NC(=O)CNC(=O)c1ccccc1 (Bz-GFAL[X19]S-OMe) | > 60 µM | > 60 µM | > 60 µM | > 60 µM | 8.6 µM | 
CCN(CC)CCCC[C@H](NC(=O)[C@H](CC(C)C)NC(=O)[C@H](C)NC(=O)[C@H](Cc1ccccc1)NC(=O)c1ccccc1C)C(=O)N[C@@H](CO)C(=O)OC (X1-FAL[Lys(Et2)]S-OMe) |  |  |  |  |  | Active
CCN(CC)CCCC[C@H](NC(=O)[C@H](CC(C)C)NC(=O)[C@H](C)NC(=O)[C@H](Cc1ccccc1)NC(=O)c1cccc(C)c1)C(=O)N[C@@H](CO)C(=O)OC (X2-FAL[Lys(Et2)]S-OMe) |  |  |  |  |  | Active
CCN(CC)CCCC[C@H](NC(=O)[C@H](CC(C)C)NC(=O)[C@H](C)NC(=O)[C@H](Cc1ccccc1)NC(=O)Cc1c[nH]c2ccccc12)C(=O)N[C@@H](CO)C(=O)OC (X18-FAL[Lys(Et2)]S-OMe) |  | > 60 µM | 1.7 µM | 15 µM | 0.11 µM | 
CCN(CC)CCCC[C@H](NC(=O)[C@H](CC(C)C)NC(=O)[C@H](C)NC(=O)[C@H](Cc1ccccc1)NC(=O)Cc1ccc2ccccc2c1)C(=O)N[C@@H](CO)C(=O)OC ({Acetyl(2-naphthyl)}-FAL[Lys(Et2)]S-OMe) | 5.2 µM | > 60 µM | 1.1 µM | 24 µM | 0.084 µM | 
CCN(CC)CCCC[C@H](NC(=O)[C@H](CC(C)C)NC(=O)[C@H](C)NC(=O)[C@H](Cc1ccccc1)NC(=O)c1ccc(C)cc1)C(=O)N[C@@H](CO)C(=O)OC ({Benzoyl(4-Me)}-FAL[Lys(Et2)]S-OMe) |  |  |  |  |  | Active
CCN(CC)CCCC[C@H](NC(=O)[C@H](CC(C)C)NC(=O)[C@H](C)NC(=O)[C@H](Cc1ccccc1)NC(=O)c1ccc(OC)cc1)C(=O)N[C@@H](CO)C(=O)OC ({Benzoyl(4-OMe)}-FAL[Lys(Et2)]S-OMe) | 0.75 µM | 12 µM | 0.25 µM | 3.3 µM | 0.26 µM | 
CCN(CCCC[C@H](NC(=O)[C@H](CC(C)C)NC(=O)[C@H](C)NC(=O)[C@H](Cc1ccccc1)NC(=O)c1ccc(C(C)(C)C)cc1)C(=O)N[C@@H](CO)C(=O)OC)C(C)C ({Benzoyl(4-tBu)}-FAL[Lys(Et,iPr)]S-OMe) |  | > 60 µM |  | 1 µM |  | 
CCCN(CCCC[C@H](NC(=O)[C@H](CC(C)C)NC(=O)[C@H](C)NC(=O)[C@H](Cc1ccccc1)NC(=O)c1ccc(C(C)(C)C)cc1)C(=O)N[C@@H](CO)C(=O)OC)C(C)C ({Benzoyl(4-tBu)}-FAL[X14]S-OMe) | 0.062 µM | > 60 µM | 0.032 µM |  | 0.11 µM | 
CCN(CC)CCCC[C@H](NC(=O)[C@H](CC(C)C)NC(=O)[C@H](C)NC(=O)[C@H](Cc1ccc(CNC(=O)OC(C)(C)C)cc1)NC(=O)c1ccc(C(C)(C)C)cc1)C(=O)N[C@@H](CO)C(=O)OC ({Benzoyl(4-tBu)}-[Phe(4-CH2NH2)](Boc)AL[Lys(Et2)]S-OMe) |  | 44 µM | 0.056 µM | 1.7 µM | 0.16 µM | 
CCN(CC)CCCC[C@H](NC(=O)[C@H](CC(C)C)NC(=O)[C@H](C)NC(=O)[C@H](Cc1ccc(CN)cc1)NC(=O)c1ccc(C(C)(C)C)cc1)C(=O)N[C@@H](CO)C(=O)OC ({Benzoyl(4-tBu)}-[Phe(4-CH2NH2)]AL[Lys(Et2)]S-OMe) |  | 53 µM | 0.063 µM | 2.4 µM | 0.075 µM | 
